Data reported in patent US20200000834A1, “POLYPHENOL GLYCOSIDE-CONTAINING COMPOSITION” (SUNSTAR INC., priority 2018, published 2020).

Assays:
AMPK = details: known as; cited from earlier work
[1] = system: ACC (acetyl-CoA carboxylase); experiment: ACC phosphorylation (pACC/tACC) by western blotting in C2C12 myotubes; type: cell-based, mouse; details: single use or combination in a specific mass ratio
Protocol: The resultant was used in the following experiment. Since trifolin and astragalin have the same molecular weights, their concentration ratios are the same as the mass ratios. A medium without any addition was used as a negative control, and a medium containing AICAR (final concentration: 2 mM) was used as a positive control. AICAR is a substance that is metabolized to an analog of AMP when taken in a cell.
A mouse skeletal myotube cell line (C2C12) was inoculated in a 6-well cell culture plate. The cell line was cultured in a DMEM medium containing 10% fetal bovine serum and a 1% antibacterial agent at 37° C. in the presence of 5% carbon dioxide for 3 days. […] The protein concentration of each supernatant was measured. […]
After SDS-PAGE, the protein was transferred to a PVDF membrane, and blocking was performed. […] After sufficient washing, chemiluminescence (band) on the membrane was detected using a CCD camera imager (produced by GE Healthcare) (FIG. 1). The band intensity was quantified using image J (NIH). The degree of the activity (i.e., “phosphorylated AMPK/total AMPK (pAMPK/tAMPK)” or “phosphorylated ACC/total ACC (pACC/tACC)”) was expressed as a relative value with the value of the negative control being defined as 1 (FIG. 2a and FIG. 2b).

Row | SMILES | AMPK activation in skeletal muscle (AMPK) | ACC phosphorylation promotion (ACC inactivation promotion) effects [1]
1 | NC(=O)c1ncn([C@@H]2O[C@H](CO)[C@@H](O)[C@H]2O)c1N [AICAR] | significantly activating AMPK | –
2 | O=c1c(O[C@@H]2O[C@H](CO)[C@H](O)[C@H](O)[C@H]2O)c(-c2ccc(O)cc2)oc2cc(O)cc(O)c12 [trifolin, kaempferol-3-O-galactoside] | – | almost no effects
